Positions of bridges follow the written chain, without caps; N, C: chain ends. Non-standard residues stand in square brackets, D forms with d. Residues, ends and D or L forms follow the SMILES beside them. *: point of attachment. 5FAM = O=C1OC2(c3ccc(O)cc3Oc3cc(O)ccc32)c2ccc(C(=O)*)cc21; βAla = NCCC(=O)O
How the values were obtained:
TmrAB in liposomes = test: Filter-based transport assay, inhibition of C4F translocation; type: biochemical, Thermus thermophilus; details: C4F 3 µM, CP^F 1 µM, 15 min 45°C; for Transported C4F peptide: TmrAB 0.4 µM
Description: In order to investigate the functional impact of CPs, we examined the effect of the CPs on ATP hydrolysis and substrate transport of TmrAB (Figure 3A). We reconstituted TmrAB in liposomes and first assayed the ATPase activity. […] We next set out to investigate peptide transport by TmrAB using a filter-based transport assay. To investigate whether CPs are recognized as substrates by TmrAB, we added fluorescein-labeled CP^Fs and examined ATP-dependent translocation. In contrast to the linear substrate peptide C4F, none of the CP^Fs were transported by TmrAB (Figure 3C). Next, we examined ATP-dependent transport of C4F peptides in the presence and absence of the different CPs.
Figure 3. CP^Fs are potent inhibitors of ATP turnover and substrate transport. (A) Experimental scheme of ATP hydrolysis and peptide transport by TmrAB. (B) CP^Fs inhibit ATP hydrolysis. TmrAB in liposomes (100 nM) was incubated with ATP (2 mM, traced with [γ^32P]-ATP), and MgCl2 (5 mM) in the presence and absence of CP^Fs (1 µM) for 10 min at 45°C. Autohydrolysis was determined in the absence of TmrAB, and background turnover was conducted in the presence of EDTA (10 mM). Release of [γ^32P] was quantified by thin layer chromatography. (C) CP^Fs are not transported by TmrAB. TmrAB (0.4 µM) reconstituted in liposomes was incubated with C4F peptide (3 µM) or CP^Fs (1 µM) in the presence of ATP/ADP (3 mM) and MgCl2 (5 mM) for 5 min at 45°C. Since CP^Fs were dissolved in maximal 0.5% (v/v) of DMSO, C4F plus 0.5% DMSO served as control. Proteoliposomes were washed on filter plates, and transported peptides were quantified at λex/em = 485/520 nm. (D) Inhibition of substrate translocation. TmrAB in liposomes (0.4 µM) were incubated with C4F peptide (3 µM), ATP/ADP (3 mM), and MgCl2 (5 mM) in the presence and absence of CP^Fs (1 µM) for 15 min at 45°C. Transported peptides were quantified as described in (C). In (B–C), mean values ± SD (n = 3) are shown. Figure 3—source data 1. Source data for Figure 3.
TmrAB in liposomes (0.4 µM) were incubated with ATP/ADP (3 mM), MgCl2 (5 mM), C4F peptide (3 µM), and CP^Fs (1 µM) for 15 min at 45°C. […] Proteoliposomes were solubilized by adding SDS (1% [v/v]) in transport buffer for 10 min at 20°C. Transported peptides were quantified at λex/em = 485/520 nm using a microplate reader (CLARIOstar, BMG LABTECH).

TmrAB = test: Conformational epitope test, CP^F anisotropy with TmrAB and SDS; type: binding, Thermus thermophilus
Protocol: In order to analyze the binding affinity and specificity of CPs to TmrAB, we established a fluorescence polarization assay. Fluorescein-labeled CP^Fs were incubated with increasing concentrations of TmrAB reconstituted in liposomes at a protein-to-lipid ratio of 1:20 (w/w). […] To address whether the CPs recognize a linear or non-linear epitope, we examined the binding of CP^Fs after disrupting the quaternary and tertiary structure of TmrAB complexes by adding anionic detergent SDS.
Figure 2. […] (A, B) Equilibrium binding analysis. Fluorescence anisotropy of CP^Fs (50 nM) was determined at λex/em = 485/520 nm with increasing concentrations of TmrAB which was reconstituted in liposomes. TmrAB concentrations were calculated based on the random (50/50%) orientation in proteoliposomes ([Stefan et al., 2020]). As a control, equal amounts of empty liposomes were added to CP^Fs (dashed lines, open symbols). The difference in fluorescence polarization was normalized to free (0%) and 100% bound CP^F. Mean values ± SD (n = 3) are shown, and data were analyzed by a one-site binding model. […] Streptavidin beads loaded with CP14^B (1 µM) were mixed with purified TmrAB (60 nM) for 1 hr at 4°C. Beads were washed and bound TmrAB was eluted by adding SDS loading buffer for 10 min at 95°C. Amounts of TmrA in input (I), flow-through (FT), wash fraction (W), and eluate (E) were analyzed by SDS-PAGE and immunoblotting (α-His). Beads without CP^B served as negative control (right panel). (D) One-step purification of TmrAB via immobilized CP14^B matrices. Streptavidin-agarose beads were loaded with CP14^B (1 µM) and mixed with DDM-solubilized membranes of E. coli containing TmrAB as described in (C). Bound TmrAB was eluted in SDS loading buffer and analyzed by SDS-PAGE (silver stain). (E) Native mass spectrometry. TmrAB (4 µM) was buffer exchanged to ESI buffer and incubated with a 2-fold molar excess of CP14^F for 10 min on ice. Protein complexes were investigated by ESI-TOF-mass spectrometry. […] Figure 2—source data 1. Source data for Figure 2. Figure 2—figure supplement 1. […] (A) CP^Bs-mediated isolation of solubilized TmrAB. Streptavidin matrices were loaded with CP^Bs (1 µM) and incubated with purified TmrAB (60 nM) for 1 hr at 4°C. Beads without CP^Bs served as control (see Figure 2C). Bound TmrAB complexes were eluted by the addition of SDS loading buffer for 10 min at 95°C. TmrAB in input (I), flow-through (FT), washing fraction (W), and eluate (E) was analyzed by SDS-PAGE and immunoblotting (α-His). (B) Isolation of TmrAB using CP13^B. Streptavidin matrices were loaded with CP13^B (1 µM) and mixed with DDM-solubilized membranes of E. coli expressing TmrAB as described in (A). Bound TmrAB complexes were eluted in SDS loading buffer and analyzed by SDS-PAGE (silver stain). (C) Formation of CP^F-TmrAB complexes. DDM-solubilized TmrAB (1 µM) was incubated with CP12^F, CP13^F, CP14^F (2 µM each), or CP6^F (5 µM) for 10 min on ice. CP^F-TmrAB complexes were analyzed by gel filtration. […] (D) Conformational epitopes. CP^Fs (50 nM) were incubated with TmrAB (0.6 µM for CP6^F and CP13^F, 0.7 µM for CP12^F, 0.5 µM for CP14^F) in the presence of 1% (v/v) SDS. Fluorescence anisotropy was determined at λex/em = 485/520 nm. […] Figure 2—figure supplement 1—source data 1. Source Data for Figure 2—figure supplement 1. [drawing 2] Figure 2—figure supplement 2. Analysis of CP^F-TmrAB complexes by native mass spectrometry.

[1] = ADP 3 mM (background), without CP 0.01
[2] = listed as CPF: CP^F 50 nM alone
[3] = listed as SDS: CP^F 50 nM + TmrAB + 1% (v/v) SDS
[4] = listed as TmrAB: CP^F 50 nM + TmrAB (0.6 µM CP6^F/CP13^F, 0.7 µM CP12^F, 0.5 µM CP14^F)

Row | SMILES | Transported C4F peptide (TmrAB in liposomes; [1]) [µmol·g/min] | Transported C4F peptide (TmrAB in liposomes; ATP 3 mM, without CP 1.66) [µmol·g/min] | Effect on ATP-dependent C4F peptide translocation (TmrAB in liposomes) | Fluorescence anisotropy (TmrAB; [2]) | Fluorescence anisotropy (TmrAB; [3]) | Fluorescence anisotropy (TmrAB; [4])
1 | CC(C)C[C@@H]1NC(=O)[C@H](Cc2ccccc2)NC(=O)CNC(=O)[C@H](CO)NC(=O)[C@H](Cc2ccccc2)NC(=O)[C@H](CC(=O)O)NC(=O)[C@@H]2CCCN2C(=O)[C@H]([C@@H](C)O)NC(=O)[C@@H](Cc2ccc(O)cc2)NC(=O)CSC[C@@H](C(=O)NCC(=O)N[C@@H](CO)C(=O)NCCC(=O)NCCC(=O)N[C@@H](CCCNC(=N)N)C(=O)N[C@@H](CCCCNC(=O)c2ccc3c(c2)C(=O)OC32c3ccc(O)cc3Oc3cc(O)ccc32)C(N)=O)NC(=O)[C@H](C)NC(=O)[C@H](CC(N)=O)NC(=O)[C@H](CCCNC(=N)N)NC(=O)[C@H](CC(C)C)NC(=O)[C@H](Cc2ccccc2)NC(=O)[C@H](C)NC1=O [CP12] ({CH2CO}-[dY]TPDFSGFLAFLRNACGS[βAla][βAla]RK(5FAM)-NH2; thioether N-16) | 0.41 | 0.41 | completely blocked peptide translocation | 0.0250 | 0.0265 | 0.1604
2 | CC[C@H](C)[C@@H]1NC(=O)[C@H]([C@@H](C)O)NC(=O)[C@H](CC(C)C)NC(=O)[C@H](Cc2c[nH]c3ccccc23)NC(=O)[C@H](Cc2ccccc2)NC(=O)[C@H](CC(N)=O)NC(=O)[C@H](CCC(=O)O)NC(=O)[C@H](CC(C)C)NC(=O)[C@H](CS)NC(=O)[C@H](Cc2c[nH]cn2)NC(=O)[C@H](CO)NC(=O)[C@@H](Cc2ccc(O)cc2)NC(=O)CSC[C@@H](C(=O)NCC(=O)N[C@@H](CO)C(=O)NCCC(=O)NCCC(=O)N[C@@H](CCCNC(=N)N)C(=O)N[C@@H](CCCCNC(=O)c2ccc3c(c2)C(=O)OC32c3ccc(O)cc3Oc3cc(O)ccc32)C(N)=O)NC(=O)[C@H](CC(C)C)NC1=O [CP6] ({CH2CO}-[dY]SHCLENFWLTILCGS[βAla][βAla]RK(5FAM)-NH2; thioether N-14) | 0.37 | 0.29 | completely blocked peptide translocation | 0.0222 | 0.0146 | 0.1093
3 | CC[C@H](C)[C@@H]1NC(=O)[C@H](Cc2c[nH]c3ccccc23)NC(=O)[C@H](CC(N)=O)NC(=O)[C@H](C)NC(=O)[C@H](CO)NC(=O)[C@@H]2CCCN2C(=O)[C@H](CC(=O)O)NC(=O)[C@@H](Cc2ccc(O)cc2)NC(=O)CSC[C@@H](C(=O)NCC(=O)N[C@@H](CO)C(=O)NCCC(=O)NCCC(=O)N[C@@H](CCCNC(=N)N)C(=O)N[C@@H](CCCCNC(=O)c2ccc3c(c2)C(=O)OC32c3ccc(O)cc3Oc3cc(O)ccc32)C(N)=O)NC(=O)[C@H]([C@@H](C)O)NC(=O)[C@H](CC(C)C)NC(=O)[C@H](CC(C)C)NC(=O)[C@H](C(C)C)NC(=O)[C@H](CC(C)C)NC1=O [CP13] ({CH2CO}-[dY]DPSANWILVLLTCGS[βAla][βAla]RK(5FAM)-NH2; thioether N-14; C-terminus assumed) | 0.25 | 0.41 | only caused a partial inhibition | 0.0252 | 0.0310 | 0.1217
4 | CC(C)[C@@H]1NC(=O)[C@H](Cc2ccccc2)NC(=O)[C@@H]2CCCN2C(=O)[C@H](CC(N)=O)NC(=O)[C@H](Cc2c[nH]c3ccccc23)NC(=O)[C@H](C(C)C)NC(=O)[C@H](Cc2ccc(O)cc2)NC(=O)[C@H](Cc2ccccc2)NC(=O)[C@@H](Cc2ccc(O)cc2)NC(=O)CSC[C@@H](C(=O)NCC(=O)N[C@@H](CO)C(=O)NCCC(=O)NCCC(=O)N[C@@H](CCCNC(=N)N)C(=O)N[C@@H](CCCCNC(=O)c2ccc3c(c2)C(=O)OC32c3ccc(O)cc3Oc3cc(O)ccc32)C(N)=O)NC(=O)[C@H](CCCCN)NC(=O)[C@H](Cc2ccccc2)NC1=O [CP14] ({CH2CO}-[dY]FYVWNPFVFKCGS[βAla][βAla]RK(5FAM)-NH2; thioether N-12; C-terminus assumed) | 0.15 | 0.41 | only caused a partial inhibition | 0.0267 | 0.0311 | 0.1410

— paper PMC8116058, “De novo macrocyclic peptides dissect energy coupling of a heterodimeric ABC transporter by multimode allosteric inhibition” (eLife, 2021)
